Test results taken from patent US7351722B2, “Use of Mangafodipir for treating oxidative stress effects” (Universite Rene Descartes (Paris V), priority 2001, dated 2008).

What was measured:
[1] = test system: acetaminophen-induced acute hepatic failure; experiment: Animal survival in acetaminophen-induced acute hepatic failure, comparison of Mangafodipir, MnTBAP and CuDIPS (Example 7); format: in vivo, mice; details: for number of surviving animals: 10 mg/kg bolus 2 h before 1000 mg/kg APAP, n = 12
Procedure: The Mangafodipir, the MnTBAP or the CuDIPS are administered in the form of a bolus, in the preventive capacity, 2 hours before the acetaminophen.
Animal survival is monitored for 24 hours after the administration of acetaminophen.

[2] = test system: hepatocellular deficiency; details: inventors' prior studies (PCT/WO 01/12327; Ferret et al. 2001); cited from earlier work

Compound | number of surviving animals ([1]; time 0 h) | number of surviving animals ([1]; time 6 h) | number of surviving animals ([1]; time 8 h) | number of surviving animals ([1]; time 9 h) | number of surviving animals ([1]; time 10 h) | number of surviving animals ([1]; time 11 h) | number of surviving animals ([1]; time 12 h) | number of surviving animals ([1]; time 13 h) | number of surviving animals ([1]; time 14 h) | number of surviving animals ([1]; time 15 h) | number of surviving animals ([1]; time 16 h) | number of surviving animals ([1]; time 17 h) | number of surviving animals ([1]; time 18 h) | number of surviving animals ([1]; time 20 h) | number of surviving animals ([1]; time 22 h) | number of surviving animals ([1]; time 24 h) | effect on survival rate ([1]; 10 mg/kg preventively, 1000 mg/kg APAP, 24 h) | effect on hepatocellular deficiency [2]
CC(C)c1cc(C(=O)[O-])c(O)c(C(C)C)c1.CC(C)c1cc(C(=O)[O-])c(O)c(C(C)C)c1.[Cu+2] [CuDIPS, Cu[II]-[diisopropylsalicylate]] | 12 | 12 | 11 | 10 | 9 | 7 | 7 | 5 | 5 | 5 | 4 | 4 | 3 | 3 | 3 | 3 | does not significantly increase the survival rate | no significant effect
O=C(O)c1ccc(-c2c3nc(c(-c4ccc(C(=O)O)cc4)c4ccc([n-]4)c(-c4ccc(C(=O)O)cc4)c4nc(c(-c5ccc(C(=O)O)cc5)c5ccc2[n-]5)C=C4)C=C3)cc1.[Mn+3] [MnTBAP, Mn(III)-tetrakis(5,10,15,20-benzoic acid)-porphyrin] | 12 | 12 | 12 | 12 | 11 | 10 | 10 | 10 | 9 | 9 | 8 | 8 | 8 | 8 | 7 | 7 |  | notable preventive and curative effect
